Experimental data from BindingDB's records for doi:10.1021/jm00016a010 (University of Innsbruck, 1995).

assay: binding affinity was evaluated by measuring the ability to displace [3H]DPDPE radioligand binding from delta opioid receptor in guinea pig brain membranes

Row | SMILES | Ki
1 | CCCCOc1c(O)ccc2c1C13CCN(CC4CC4)C(C2)[C@]1(OC)CCC(=O)C3 (stereo not given in full) [3-butoxy-17-cyclopropylmethyl-4-hydroxy-10-methoxy-17-azatetracyclo[7.5.3.01,10.02,7]heptadeca-2(7),3,5-trien-13-one] | 42 nM
2 | COc1c(O)ccc2c1C13CCN(CC4CC4)C(C2)[C@]1(O)CCC(=O)C3 (stereo not given in full) [17-cyclopropylmethyl-4,10-dihydroxy-3-methoxy-17-azatetracyclo[7.5.3.01,10.02,7]heptadeca-2(7),3,5-trien-13-one] | 334 nM
3 | COc1c(O)ccc2c1C13CCN(CC4CC4)C(C2)[C@]1(OC)CCC(=O)C3 (stereo not given in full) [17-cyclopropylmethyl-4-hydroxy-3,10-dimethoxy-17-azatetracyclo[7.5.3.01,10.02,7]heptadeca-2(7),3,5-trien-13-one] | 14 nM
4 | CCO[C@@]12CCC(=O)CC13CCN(CC1CC1)C2Cc1ccc(O)c(OC)c13 (stereo not given in full) [17-cyclopropylmethyl-10-ethoxy-4-hydroxy-3-methoxy-17-azatetracyclo[7.5.3.01,10.02,7]heptadeca-2(7),3,5-trien-13-one] | 21 nM
5 | COc1cccc2c1[C@]13CCN(CC4CC4)[C@H](C2)[C@]1(OC)CCC(=O)C3 [Naltrindole analogue] | 61 nM
